Assay results published in patent US8084027B2, “Combinations comprising a CDK inhibitor and a growth factor antibody or anti-mitotic” (Nerviano Medical Sciences S.r.l., priority 2006, dated 2011).
Like-named read-outs stand apart in the source and are kept apart here.

Experiments:
[1] = tested on: DU145 prostate carcinoma cells; assay: In vivo antitumor efficacy using the monoclonal antibody (DU145 xenograft, tumor growth delay); conditions: COMPOUND A 40 mg/kg oral BID; for Time to reach 1 g: DU145 s.c. in athymic mice, bevacizumab 20 mg/kg i.p. days 6, 10, 14, 18, in combination COMPOUND A given between bevacizumab treatments; for T-C: delay vs control to reach tumor size 1 g
Procedure: Balb, Nu\Nu male mice, from Harlan (Italy), were maintained in cages with paper filter cover, food and bedding sterilized and water acidified. 2.5×10^6 DU145 prostate carcinoma cells (from the American Type Culture Collection) were injected subcutaneously in athymic mice. […] The treatment started 6 days later tumor cell injection when tumors were palpable. Bevacizumab was prepared immediately before treatment, while COMPOUND A was prepared every 3 days, on the basis of known stability of the compound.
COMPOUND A was administrated by oral route in a volume of 10 ml/kg at the dose of 40 mg/kg twice a day (BID) for 12 days (days 6 to 17). Bevacizumab was administered intraperitoneally in a volume of 10 ml/kg at the dose of 20 mg/kg on days 6, 10, 14, 18 from the days of tumor cells injection. When combined, COMPOUND A was administered in the interval between the bevacizumab treatments at days 7, 8, 9, 11, 12, 13, 15, 16, 17, 19, 20 and 21. Tumor growth and body weight were measured every 3 days. Tumor growth was assessed by caliper. The two diameters were recorded and the tumor weight was calculated according the following formula: length (mm)×width^2/2. The effect of the antitumor treatment was evaluated as the delay in the onset of an exponential growth of the tumor (see for references, Anticancer drugs 7:437-60, 1996). This delay (T-C value) was defined as the difference of time (in days) required for the treatment group (T) and the control group (C) tumors to reach a predetermined size (1 g). Toxicity was evaluated on the basis of body weigh reduction.

[2] = tested on: DU145 prostate carcinoma cells; conditions: Compound A 40 mg/kg oral BID; for Time to reach 1 g: DU145 s.c. in athymic mice, docetaxel 10 mg/kg i.v. days 10, 14, 18, in combination Compound A given between docetaxel treatments; for T-C: delay vs control to reach tumor size 1 g, docetaxel 10 mg/kg i.v.
Procedure: Balb, Nu\Nu male mice, from Harlan (Italy), were maintained in cages with paper filter cover, food and bedding sterilized and water acidified. 2.5×10^6 DU145 prostate carcinoma cells (from the American Type Culture Collection) were injected subcutaneously in athymic mice.
The treatment started 10 days later tumor cells injection when tumors were palpable. Docetaxel was prepared immediately before treatment, while COMPOUND A was prepared every 3 days, on the basis of known stability of the compound.
COMPOUND A was administered by oral route in a volume of 10 ml/kg at the doses of 40 mg/kg twice a day (BID) for 9 days (days 10 to 18). Docetaxel was administered by intravenous route in a volume of 10 ml/kg at the dose of 10 mg/kg on days 10, 14, 18 from the days of cell injection. When combined, COMPOUND A was administered in the interval between the docetaxel treatments at days 11, 12, 13, 15, 16, 17, 19, 20 and 21. Tumor growth and body weight were measured every 3 days. Tumor growth was assessed by caliper. The two diameters were recorded and the tumor weight was calculated according to the following formula: length (mm)×width^2/2. The effect of the antitumor treatment was evaluated as the delay in the onset of an exponential growth of the tumor (see for references, Anticancer drugs 7:437-60, 1996). This delay (T-C value) was defined as the difference of time (in days) required for the treatment group (T) and the control group (C) tumors to reach a predetermined size (1 g). Toxicity was evaluated on the basis of body weight reduction.

| Compound | Time to reach 1 g [1] | T-C ([1]; bevacizumab 20 mg/kg i.p.) | Time to reach 1 g [2] | T-C [2] | Toxicity ([1]; evaluated on the basis of body weight reduction, bevacizumab 20 mg/kg i.p.) |
| --- | --- | --- | --- | --- | --- |
| CNC(=O)c1nn(C)c2c1C(C)(C)Cc1cnc(Nc3ccc(N4CCN(C)CC4)cc3)nc1-2 [COMPOUND A, 8-[4-(4-methyl-piperazin-1-yl)-phenylamino]-1,4,4-trimethyl-4,5-dihydro-1H-pyrazolo[4,3-h]quinazoline-3-carboxylic acid methylamide] | 32.38 ± 2.7 days | 16.88 days | 27.4 ± 2.7 days | 10.21 days | – |
| CC(=O)O[C@@]12CO[C@@H]1C[C@H](O)[C@@]1(C)C(=O)[C@H](O)C3=C(C)[C@@H](OC(=O)[C@H](O)[C@@H](NC(=O)OC(C)(C)C)c4ccccc4)C[C@@](O)([C@@H](OC(=O)c4ccccc4)[C@H]21)C3(C)C [Docetaxel] | – | – | 22.25 ± 2.98 days | 5.05 days | – |
| Bevacizumab: antibody to vascular endothelial growth factor | 27.93 ± 3.44 days | 12.43 days | – | – | 0/8 |
